Assay results: article PMC3834340, “X-Ray Crystal Structure of the Ancestral 3-Ketosteroid Receptor–Progesterone–Mifepristone Complex Shows Mifepristone Bound at the Coactivator Binding Interface” (PLoS ONE, 2013)

Tests used:
[1] = system: T1, ancestral 3-ketosteroid receptor (ancSR2); assay: X-ray crystal structure at […] Å (ternary complex, surface sites); the EC50 is from a separate CHO-K1 luciferase reporter assay and is not assigned to these sites; format: cell-based, synthetic construct
T1 construct: ancSR2 LBD, residues 2 through 248 modeled

[2] = system: T1, ancestral 3-ketosteroid receptor (ancSR2); assay: X-ray crystal structure at […] Å; the EC50 is from a Gal4-DBD–LBD luciferase reporter assay in CHO-K1 cells; format: cell-based, synthetic construct

Q: CC#C[C@]1(O)CC[C@H]2[C@@H]3CCC4=CC(=O)CCC4=C3[C@@H](c3ccc(N(C)C)cc3)C[C@@]21C [mifepristone] was tested. Which EC50 [1] did it give?
A: The EC50 was 56 ± 1.2 nM.

Q: With CC(=O)[C@H]1CC[C@H]2[C@@H]3CCC4=CC(=O)CC[C@]4(C)[C@H]3CC[C@]12C [progesterone] as the molecule, how does the EC50 [2] read?
A: Its EC50 is 0.078 ± 0.0017 nM.
